The results in this text go back to US7635697B2, “Farnesyl protein transferase inhibitors and methods for treating proliferative diseases” (Schering Corporation, priority 2004, dated 2009).

Experiment [1] has as its target purified human farnesyl protein transferase (Homo sapiens, UniProt P49354+P49356). Kind of experiment: FPT activity: transfer of [3H] farnesyl from [3H] farnesyl pyrophosphate to biotinylated H-ras peptide (SPA). The note with it: ranges are stated for a listed group of compounds; range ends given as 'about <' / 'about >'. The class given is biochemical. As for the experimental part: FPT activity was determined by measuring the transfer of [^3H] farnesyl from [^3H] farnesyl pyrophosphate to a biotinylated peptide derived from the C-terminus of H-ras (biotin-CVLS). The reaction mixture contains: 50 mM Tris pH7.7, 5 mM MgCl2, 5 μM Zn^++, 5 mM DTT, 0.1% Triton-X, 0.05 μM peptide, 0.03 nM purified human farnesyl protein transferase, 0.180 μM [^3H] farnesyl pyrophosphate, plus the indicated concentration of tricyclic compound or vehicle control in a total volume of 100 μl. The reaction was incubated in a Vortemp shaking incubator at 37° C., 45 RPM for 60 minutes and stopped with 150 μl of 0.25 M EDTA containing 0.5% BSA and 1.3 mg/ml Streptavidin SPA beads. Radioactivity was measured in a Wallach 1450 Microbeta liquid scintillation counter. Percent inhibition was calculated relative to the vehicle control.

A further experiment concerns Human tumor cells. Description: Soft Agar Assay (anchorage-independent growth, colony count). As to conditions: ranges are stated for a listed group of compounds, range ends given as 'about <' / 'about >'. The class given is cell-based. As for the experimental part:
Anchorage-independent growth is a characteristic of tumorigenic cell lines. Human tumor cells can be suspended in growth medium containing 0.3% agarose and an indicated concentration of a farnesyl transferase inhibitor. The solution can be overlayed onto growth medium solidified with 0.6% agarose containing the same concentration of farnesyl transferase inhibitor as the top layer. After the top layer is solidified, plates can be incubated for 10-16 days at 37° C. under 5% CO2 to allow colony outgrowth. After incubation, the colonies can be stained by overlaying the agar with a solution of MTT (3-[4,5-dimethyl-thiazol-2-yl]-2,5-diphenyltetrazolium bromide, Thiazolyl blue) (1 mg/mL in PBS). Colonies can be counted and the IC50's can be determined.

Values joined by “and” are separate entries in the source; they are usually repeats but may differ in a detail not shown here. Equal entries are not always repeated.

For `O=C(Nc1cccc(Cn2ccnc2)c1)[C@H]1CN(C2c3ccc(Cl)cc3CCc3cccnc32)CCN1` (mixture of isomers) [(14.2)], the IC50 in experiment [1] was in the range of 0.05 to 8.9 nM; in the experiment with Human tumor cells (Homo sapiens), 0.3 to 50 nM.

Take `CC(C)(C)OC(=O)N1CCN(C2c3ccc(Cl)cc3CCc3cc(Br)cnc32)CC1C(=O)Nc1cccc(Cn2ccnc2)c1` (single isomer, unassigned) [(1.3)]: the IC50 in experiment [1] is 0.05 to 8.9 nM and 0.05 to 2.7 nM and 0.05 to 1.2 nM; in the experiment with Human tumor cells (Homo sapiens), 0.3 to 50 nM.

Consider `CC(C)(C)OC(=O)N1CCN(C2c3ccc(Cl)cc3CCc3cc(Br)cnc32)CC1C(=O)Nc1cccc(Cn2ccnc2)c1` (single isomer, unassigned) [(1.4)], for which, in experiment [1], the IC50 was 0.05 to 8.9 nM and 0.05 to 2.7 nM and 0.05 to 1.2 nM.

Consider `Cc1cncn1Cc1cccc(NC(=O)C2CN(C3c4ccc(Cl)cc4CCc4cccnc43)CCN2C(=O)OC2CCCCC2)c1` (single isomer, unassigned) [(32.1)], for which the IC50 in experiment [1] is 0.05 to 8.9 nM and 0.05 to 2.7 nM and 0.05 to 1.2 nM; with Human tumor cells (Homo sapiens), 0.3 to 50 nM.

Take `Cc1cncn1Cc1cccc(NC(=O)C2CN(C3c4ccc(Cl)cc4CCc4cccnc43)CCN2C(=O)OC2CCCCC2)c1` (single isomer, unassigned) [(32.2)]: the concentration for half-maximal inhibition (IC50) in experiment [1] was 0.05 to 8.9 nM.

In the case of `Cc1cn(Cc2cccc(NC(=O)C3CN([C@@H]4c5ccc(Cl)cc5CCc5cc(Br)cnc54)CCN3)c2)cn1` (some centres unmarked) [(4.2)], the IC50 in experiment [1] is 0.05 to 8.9 nM; with Human tumor cells (Homo sapiens), 0.3 to 50 nM.

On to `Cc1cn(Cc2cccc(NC(=O)C3CN(C4c5ccc(Cl)cc5CCc5cc(Br)cnc54)CCN3)c2)cn1` (centres unmarked) [(4.3)], for which the values for the IC50 (in experiment [1]; in the experiment with Human tumor cells (Homo sapiens)) were 0.05 to 8.9 nM and 0.3 to 50 nM, respectively.

Consider `Cc1cn(Cc2cccc(NC(=O)C3CN([C@@H]4c5ccc(Cl)cc5CCc5cc(Br)cnc54)CCN3C(=O)NC3CCCCC3)c2)cn1` (some centres unmarked) [(5.1)], for which the IC50 in experiment [1] is 0.05 to 8.9 nM and 0.05 to 2.7 nM; in the experiment on Human tumor cells (Homo sapiens) it was 0.3 to 50 nM.

For the compound `Cc1cn(Cc2cccc(NC(=O)C3CN(C4c5ccc(Cl)cc5CCc5cc(Br)cnc54)CCN3C(=O)NC3CCCCC3)c2)cn1` (centres unmarked) [(6.1)], the IC50 is 0.05 to 8.9 nM and 0.05 to 2.7 nM in experiment [1]; 0.3 to 50 nM in the experiment with Human tumor cells (Homo sapiens).

Compound `O=C(Nc1cccc(Cn2ccnc2)c1)[C@@H]1CN(C2c3ccc(Cl)cc3CCc3cc(Br)cnc32)CCN1C1c2ccc(Cl)cc2CCc2cc(Br)cnc21` (some centres unmarked) [(12.1)] came in with an IC50 in experiment [1] of 0.05 to 8.9 nM.

In the case of `O=C(Nc1cccc(Cn2ccnc2)c1)[C@@H]1CN(C2c3ccc(Cl)cc3CCc3cc(Br)cnc32)CCN1` (some centres unmarked) [(12.2)], the IC50 in experiment [1] lay in the range of 0.05 to 8.9 nM.

Consider `O=C(Nc1cccc(Cn2ccnc2)c1)[C@H]1CN(C2c3ccc(Cl)cc3CCc3cccnc32)CCN1C1c2ccc(Cl)cc2CCc2cccnc21` (some centres unmarked) [(14.1)], for which the IC50 in the experiment with Human tumor cells (Homo sapiens) fell in the range of 0.3 to 50 nM.

Regarding `O=C(Nc1cccc(Cn2ccnc2)c1)[C@H]1CNCCN1C1c2ccc(Cl)cc2CCc2cccnc21` (some centres unmarked) [(14.3)], the IC50 was in the range of 0.05 to 8.9 nM in experiment [1] and 0.3 to 50 nM in the experiment on Human tumor cells (Homo sapiens).

As for `O=C(Nc1cccc(Cn2ccnc2)c1)C1CN(C2c3ccc(Cl)cc3CCc3cccnc32)CCN1C(=O)OC1CCCCC1` (centres unmarked) [(15.1)], the IC50 was 0.05 to 8.9 nM and 0.05 to 2.7 nM and 0.05 to 1.2 nM in experiment [1]; 0.3 to 50 nM in the experiment with Human tumor cells (Homo sapiens).

Turning to `O=C(Nc1cccc(Cn2ccnc2)c1)C1CN([C@@H]2c3ccc(Cl)cc3CCc3cccnc32)CCN1C(=O)OC1CCCCC1` (some centres unmarked) [(15.2)], the IC50 is 0.05 to 8.9 nM and 0.05 to 2.7 nM and 0.05 to 1.2 nM in experiment [1]; 0.3 to 50 nM with Human tumor cells (Homo sapiens).

Consider `O=C(C1CN(C2c3ccc(Cl)cc3CCc3cccnc32)CCN1C(=O)OC1CCCCC1)N(Cc1ccccc1)c1cccc(Cn2ccnc2)c1` (centres unmarked) [(16.1)], for which the results for the IC50 (in experiment [1]; with Human tumor cells (Homo sapiens)) were 0.05 to 8.9 nM and 0.3 to 50 nM, respectively.

In the case of `Cc1cn(Cc2cccc(NC(=O)C3CN(C4c5ccc(Cl)cc5CCc5cccnc54)CCN3C(=O)OC3CCCCC3)c2)cn1` (centres unmarked) [(21.1)], the IC50 in experiment [1] was 0.05 to 8.9 nM and 0.05 to 2.7 nM and 0.05 to 1.2 nM; in the experiment on Human tumor cells (Homo sapiens), 0.3 to 50 nM.

In the case of `Cc1cn(Cc2cccc(NC(=O)C3CN([C@@H]4c5ccc(Cl)cc5CCc5cccnc54)CCN3C(=O)OC3CCCCC3)c2)cn1` (some centres unmarked) [(22.1)], the IC50 was 0.05 to 8.9 nM and 0.05 to 2.7 nM and 0.05 to 1.2 nM in experiment [1]; 0.3 to 50 nM in the experiment with Human tumor cells (Homo sapiens).

Take `Cc1cn(Cc2cccc(NC(=O)C3CN(C4c5ccc(Cl)cc5CCc5cccnc54)CCN3C(=O)NC3CCCCC3)c2)cn1` (centres unmarked) [(26.1)]: the IC50 in experiment [1] is 0.05 to 8.9 nM and 0.05 to 2.7 nM and 0.05 to 1.2 nM.

In turn, `Cc1cn(Cc2cccc(NC(=O)C3CN(C4c5ccc(Cl)cc5CCc5cccnc54)CCN3C(=O)Nc3ccc(Cl)cc3)c2)cn1` (centres unmarked) [(27.1)] registered an IC50 in experiment [1] of 0.05 to 8.9 nM.

As to `Cc1cn(Cc2cccc(NC(=O)C3CN(C4c5ccc(Cl)cc5CCc5cccnc54)CCN3C(=O)Cc3ccc(Cl)cc3)c2)cn1` (centres unmarked) [(28.1)], the IC50 in experiment [1] was 0.05 to 8.9 nM and 0.05 to 2.7 nM and 0.05 to 1.2 nM; in the experiment with Human tumor cells (Homo sapiens), 0.3 to 50 nM.

On to `Cc1cn(Cc2cccc(NC(=O)C3CN(C4c5ccc(Cl)cc5CCc5cccnc54)CCN3S(C)(=O)=O)c2)cn1` (centres unmarked) [(29.1)], for which, in experiment [1], the IC50 was 0.05 to 8.9 nM and 0.05 to 2.7 nM and 0.05 to 1.2 nM.

`Cc1cn(Cc2cccc(NC(=O)C3CN([C@@H]4c5ccc(Cl)cc5CCc5cccnc54)CCN3C(=O)CC3CCN(C(N)=O)CC3)c2)cn1` (some centres unmarked) [(30.1)]: the IC50 in experiment [1] was 0.05 to 8.9 nM and 0.05 to 2.7 nM and 0.05 to 1.2 nM; with Human tumor cells (Homo sapiens), 0.3 to 50 nM.

`Cc1nccn1Cc1cccc(NC(=O)C2CN(C3c4ccc(Cl)cc4CCc4cccnc43)CCN2C(=O)OC2CCCCC2)c1` (centres unmarked) [(31.1)] displayed an IC50 in the experiment on Human tumor cells of less than 0.5 nM.

Turning to `CC(C)(C)OC(=O)N1CCN(C2c3ccc(Cl)cc3CCc3cccnc32)C(C(=O)Nc2cccc(Cn3ccnc3)c2)C1` (centres unmarked) [(40.1)], in the experiment on Human tumor cells (Homo sapiens), the IC50 lay in the range of 0.3 to 50 nM.

Compound `CC(C)(C)OC(=O)N1CCN([C@@H]2c3ccc(Cl)cc3CCc3cccnc32)C(C(=O)Nc2cccc(Cn3ccnc3)c2)C1` (some centres unmarked) [(40.2)] came in with an IC50 in the experiment on Human tumor cells (Homo sapiens) of 0.3 to 50 nM.

As to `NC(=O)N1CCC(CC(=O)N2CCN(C3c4ccc(Cl)cc4CCc4cccnc43)C(C(=O)Nc3cccc(Cn4ccnc4)c3)C2)CC1` (centres unmarked) [(45.1)], the IC50 in experiment [1] fell in the range of 0.05 to 8.9 nM; with Human tumor cells (Homo sapiens), 0.3 to 50 nM.

`Cc1cn(CCc2ccccc2NC(=O)[C@H]2CN([C@H]3c4ccc(Cl)cc4CCc4cccnc43)CCN2C(=O)OC2CCCCC2)cn1` [(47.1)]: in experiment [1], the IC50 is 0.05 to 8.9 nM.

One may read the IC50 as the concentration that inhibits the measured activity by half. Lower therefore signals greater potency in that assay.
